From publication PMC3677712 (Bioorganic & medicinal chemistry letters, 2013)
Where two headings read alike, the source gives them in different places. Values belong to the compound of their own block, whether it stands above or below them.

What was measured:
[1] = Intrinsic clearance in hepatic microsomes; assay type: in vitro ADME; conditions: rat
[2] = Intrinsic clearance in hepatic microsomes; assay type: in vitro ADME; conditions: human
[3] = Intrinsic clearance in hepatic microsomes; assay type: in vitro ADME; conditions: mouse
AMPK (AMPK-A1/B1/G1) [4] = biological target: T1, AMPK (AMPK-A1/B1/G1) (Homo sapiens, UniProt Q13131); assay: In vitro kinase assay; assay type: biochemical; conditions: 10-dose, 3-fold dilution from 100 μM, 10 μM ATP
T1 sequence (Q13131 whole entry): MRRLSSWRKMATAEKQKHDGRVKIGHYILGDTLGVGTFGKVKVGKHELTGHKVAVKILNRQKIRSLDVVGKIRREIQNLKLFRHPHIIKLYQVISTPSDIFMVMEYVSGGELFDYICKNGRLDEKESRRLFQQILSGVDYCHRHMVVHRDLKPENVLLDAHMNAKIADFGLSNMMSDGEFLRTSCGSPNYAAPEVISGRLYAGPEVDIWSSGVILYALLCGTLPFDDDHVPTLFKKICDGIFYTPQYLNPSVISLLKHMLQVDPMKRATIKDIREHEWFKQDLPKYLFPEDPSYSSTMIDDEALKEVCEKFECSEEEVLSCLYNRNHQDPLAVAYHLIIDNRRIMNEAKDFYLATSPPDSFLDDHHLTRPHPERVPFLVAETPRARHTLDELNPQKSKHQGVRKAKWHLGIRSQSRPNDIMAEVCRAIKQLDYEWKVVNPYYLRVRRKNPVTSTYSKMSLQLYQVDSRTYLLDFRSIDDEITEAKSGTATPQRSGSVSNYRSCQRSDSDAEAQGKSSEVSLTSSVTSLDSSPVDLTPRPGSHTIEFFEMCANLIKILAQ
T1 sequence (Q9Y478 whole entry partner): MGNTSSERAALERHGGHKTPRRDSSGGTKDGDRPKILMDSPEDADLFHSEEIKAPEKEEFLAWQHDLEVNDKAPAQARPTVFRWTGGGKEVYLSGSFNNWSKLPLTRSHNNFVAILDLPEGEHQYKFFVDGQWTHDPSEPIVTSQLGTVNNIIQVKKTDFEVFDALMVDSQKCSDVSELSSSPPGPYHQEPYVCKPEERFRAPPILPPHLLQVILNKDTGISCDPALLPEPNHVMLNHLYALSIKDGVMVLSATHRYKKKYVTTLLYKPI
T1 sequence (P54619 whole entry partner): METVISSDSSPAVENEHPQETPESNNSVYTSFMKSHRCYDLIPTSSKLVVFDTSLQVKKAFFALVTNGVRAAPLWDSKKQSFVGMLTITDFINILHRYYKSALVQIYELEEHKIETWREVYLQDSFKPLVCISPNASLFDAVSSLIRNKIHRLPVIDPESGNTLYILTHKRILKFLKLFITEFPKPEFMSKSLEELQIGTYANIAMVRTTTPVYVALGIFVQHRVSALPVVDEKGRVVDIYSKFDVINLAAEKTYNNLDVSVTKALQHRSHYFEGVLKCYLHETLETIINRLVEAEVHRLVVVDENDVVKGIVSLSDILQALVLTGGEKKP

AMPK (AMPK-A1/B1/G1) [5] = biological target: T1, AMPK (AMPK-A1/B1/G1); conditions: reference compounds previously run in these assays; cited from earlier work
ALK2 (Q207D) = conditions: mouse model expressing a constitutively active form of ALK2 (Q207D); cited from earlier work
[6] = predicted from microsomal intrinsic clearance

- CLint scaled ([1]; liver microsomes): 148 mL/min/kg
- CLHEP [1, 6]: 47.5 mL/min/kg
- CLint scaled ([2]; liver microsomes): 516 mL/min/kg
- CLHEP [2, 6]: 20.2 mL/min/kg
- CLint scaled ([3]; liver microsomes): 617 mL/min/kg
- CLHEP [3, 6]: 78.5 mL/min/kg
- IC50 AMPK (AMPK (AMPK-A1/B1/G1) [4]): Inactive
Structure (SMILES): COc1ccc(-c2cnc3c(-c4cccc5ncccc45)cnn3c2)cc1 [7g]

Structure (SMILES): CC(C)Oc1ccc(-c2cnc3c(-c4ccnc5ccccc45)cnn3c2)cc1 [DMH1, 3, DMH1]
- IC50 AMPK (AMPK (AMPK-A1/B1/G1) [5]): Inactive

Structure (SMILES): c1ccc2c(-c3cnn4cc(-c5ccc(N6CCNCC6)cc5)cnc34)ccnc2c1 [LDN-193189, 2, LDN-193189]
- effect on ectopic ossification (in words) (ALK2 (Q207D)): could blunt ectopic ossification
